Source: ChEMBL document CHEMBL1141036, “2-Alkyl-3-(1,2,3,6-tetrahydropyridin-4-yl)-1H-indoles as novel 5-HT6 receptor agonists” (Bioorg Med Chem Lett, 2005)

Columns and labels:
[1] = Concentration to stimulate the cAMP production in BHK cells; assay type: functional, cell-based; conditions: Homo sapiens
[2] = molecular target: T1, 5-hydroxytryptamine receptor 6 (Homo sapiens, UniProt P50406); assay: Intrinsic activity (IA) at the 5-HT6 receptor determined by measuring their cAMP production in BHK cells and compared to the effect elicited by 5-HT; assay type: functional, cell-based; conditions: Mesocricetus auratus
[3] = molecular target: T1, 5-hydroxytryptamine receptor 6; assay: Displacement of [3H]LSD binding to cloned human 5-hydroxytryptamine 6 receptor expressed in HEK cells; assay type: cell-based, HEK293
[4] = molecular target: T1, 5-hydroxytryptamine receptor 6; assay: Displacement of [3H]LSD binding to cloned h5-HT6 receptors stably expressed in HEK cells; assay type: cell-based, HEK293
[5] = molecular target: 5-hydroxytryptamine receptor 7 (Homo sapiens, UniProt P34969); assay: Inhibitory activity against 5-hydroxytryptamine 7 receptor in human
[6] = molecular target: 5-hydroxytryptamine receptor 1B (Rattus norvegicus, UniProt P28564); assay: Inhibitory activity against 5-hydroxytryptamine 1B receptor in rat
[7] = molecular target: 5-hydroxytryptamine receptor 3A (Mus musculus) (UniProt P23979); assay: Inhibitory activity against 5-hydroxytryptamine 3 receptor expressed in NG 108 cells
[8] = molecular target: T2, 5-hydroxytryptamine receptor 2C (Homo sapiens, UniProt P28335); assay: Inhibitory activity against 5-hydroxytryptamine 2C receptor in human
T2 sequence (P28335 whole entry): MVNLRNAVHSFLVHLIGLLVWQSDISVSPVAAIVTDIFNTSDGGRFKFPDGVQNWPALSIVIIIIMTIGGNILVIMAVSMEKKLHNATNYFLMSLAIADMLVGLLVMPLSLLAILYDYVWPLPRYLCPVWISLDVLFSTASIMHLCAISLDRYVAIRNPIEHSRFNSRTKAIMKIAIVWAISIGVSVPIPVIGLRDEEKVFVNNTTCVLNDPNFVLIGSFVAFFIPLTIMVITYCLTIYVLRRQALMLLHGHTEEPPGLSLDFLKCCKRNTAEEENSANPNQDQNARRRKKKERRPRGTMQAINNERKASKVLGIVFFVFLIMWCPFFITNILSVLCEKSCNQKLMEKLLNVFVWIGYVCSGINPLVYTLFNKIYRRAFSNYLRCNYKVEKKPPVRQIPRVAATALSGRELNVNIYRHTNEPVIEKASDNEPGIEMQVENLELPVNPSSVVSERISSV

[9] = molecular target: 5-hydroxytryptamine receptor 4 (Cavia porcellus, UniProt O70528); assay: Inhibitory activity against 5-hydroxytryptamine 4 receptor in guinea pig
[10] = molecular target: T3, 5-hydroxytryptamine receptor 1A (Rattus norvegicus, UniProt P19327); assay: Inhibitory activity against 5-hydroxytryptamine 1A receptor in rat
T3 sequence (P19327 whole entry): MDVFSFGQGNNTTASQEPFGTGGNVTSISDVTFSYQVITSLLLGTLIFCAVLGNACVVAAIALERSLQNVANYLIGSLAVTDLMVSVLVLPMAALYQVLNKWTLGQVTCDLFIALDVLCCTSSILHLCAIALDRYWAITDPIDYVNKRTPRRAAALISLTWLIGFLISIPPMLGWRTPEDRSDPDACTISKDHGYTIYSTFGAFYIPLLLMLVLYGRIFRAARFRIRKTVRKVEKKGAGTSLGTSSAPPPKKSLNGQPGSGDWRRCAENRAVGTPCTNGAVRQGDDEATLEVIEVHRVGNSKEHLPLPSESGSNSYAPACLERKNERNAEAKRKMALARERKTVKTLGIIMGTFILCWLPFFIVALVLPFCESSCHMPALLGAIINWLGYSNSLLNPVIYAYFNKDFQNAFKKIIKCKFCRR

[11] = molecular target: 5-hydroxytryptamine receptor 2A (Homo sapiens, UniProt P28223); assay: Inhibitory activity against 5-hydroxytryptamine 2A receptor in human
[12] = molecular target: T1, 5-hydroxytryptamine receptor 6; assay: Inhibitory activity against 5-hydroxytryptamine 6 receptor in human
[13] = molecular target: T1, 5-hydroxytryptamine receptor 6; assay: Displacement of [3H]LSD binding to cloned human 5-hydroxytryptamine 6 receptor stably expressed in HEK cells; assay type: cell-based, HEK293

5-hydroxytryptamine receptor 7, sequence (P34969 whole entry): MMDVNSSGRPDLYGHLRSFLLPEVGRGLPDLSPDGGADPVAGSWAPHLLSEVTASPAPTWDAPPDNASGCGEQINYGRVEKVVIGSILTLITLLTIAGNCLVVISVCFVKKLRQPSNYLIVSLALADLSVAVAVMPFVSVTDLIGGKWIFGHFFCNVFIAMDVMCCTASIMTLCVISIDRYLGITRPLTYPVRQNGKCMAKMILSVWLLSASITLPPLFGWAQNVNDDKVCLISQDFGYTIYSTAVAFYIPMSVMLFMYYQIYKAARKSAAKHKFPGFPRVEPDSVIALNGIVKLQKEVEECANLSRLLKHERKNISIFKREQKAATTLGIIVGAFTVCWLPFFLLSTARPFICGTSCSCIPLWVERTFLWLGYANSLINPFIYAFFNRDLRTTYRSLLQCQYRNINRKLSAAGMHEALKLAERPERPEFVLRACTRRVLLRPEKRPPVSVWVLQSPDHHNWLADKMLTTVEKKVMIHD
T1 sequence (P50406 whole entry): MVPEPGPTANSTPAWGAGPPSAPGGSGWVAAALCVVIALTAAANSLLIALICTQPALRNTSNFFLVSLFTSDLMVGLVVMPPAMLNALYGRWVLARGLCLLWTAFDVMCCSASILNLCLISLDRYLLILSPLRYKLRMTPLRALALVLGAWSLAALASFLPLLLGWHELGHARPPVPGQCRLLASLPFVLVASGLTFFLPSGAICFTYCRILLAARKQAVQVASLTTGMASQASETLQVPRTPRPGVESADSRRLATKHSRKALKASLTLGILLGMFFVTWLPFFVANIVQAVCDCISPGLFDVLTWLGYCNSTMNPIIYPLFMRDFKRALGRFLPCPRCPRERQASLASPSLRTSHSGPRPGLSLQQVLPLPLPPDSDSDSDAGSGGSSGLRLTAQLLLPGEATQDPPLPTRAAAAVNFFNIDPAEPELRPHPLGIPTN
5-hydroxytryptamine receptor 3A (Mus musculus), sequence (P23979 whole entry, looked up): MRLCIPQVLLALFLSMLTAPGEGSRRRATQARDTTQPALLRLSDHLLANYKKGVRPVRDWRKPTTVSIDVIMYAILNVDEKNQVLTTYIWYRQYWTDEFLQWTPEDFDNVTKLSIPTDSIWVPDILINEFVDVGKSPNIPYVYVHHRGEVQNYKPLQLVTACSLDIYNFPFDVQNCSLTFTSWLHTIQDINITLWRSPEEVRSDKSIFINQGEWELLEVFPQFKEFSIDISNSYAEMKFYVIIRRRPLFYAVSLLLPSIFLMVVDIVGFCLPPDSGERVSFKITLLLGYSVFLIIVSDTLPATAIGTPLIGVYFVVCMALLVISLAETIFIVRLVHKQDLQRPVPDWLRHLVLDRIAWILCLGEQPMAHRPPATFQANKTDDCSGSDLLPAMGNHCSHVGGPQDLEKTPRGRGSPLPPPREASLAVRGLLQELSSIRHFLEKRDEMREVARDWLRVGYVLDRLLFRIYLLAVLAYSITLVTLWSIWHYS
5-hydroxytryptamine receptor 1B, sequence (P28564 whole entry): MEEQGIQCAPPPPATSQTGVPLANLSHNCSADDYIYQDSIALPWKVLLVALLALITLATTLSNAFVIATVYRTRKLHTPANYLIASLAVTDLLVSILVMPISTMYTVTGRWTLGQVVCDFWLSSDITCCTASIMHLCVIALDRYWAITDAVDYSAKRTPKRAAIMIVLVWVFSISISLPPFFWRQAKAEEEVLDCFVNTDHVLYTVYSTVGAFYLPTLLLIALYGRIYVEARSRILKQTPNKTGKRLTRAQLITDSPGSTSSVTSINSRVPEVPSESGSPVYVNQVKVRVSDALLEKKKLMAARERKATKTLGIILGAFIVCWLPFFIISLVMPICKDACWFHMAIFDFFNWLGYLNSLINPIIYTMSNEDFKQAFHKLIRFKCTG
5-hydroxytryptamine receptor 2A, sequence (P28223 whole entry): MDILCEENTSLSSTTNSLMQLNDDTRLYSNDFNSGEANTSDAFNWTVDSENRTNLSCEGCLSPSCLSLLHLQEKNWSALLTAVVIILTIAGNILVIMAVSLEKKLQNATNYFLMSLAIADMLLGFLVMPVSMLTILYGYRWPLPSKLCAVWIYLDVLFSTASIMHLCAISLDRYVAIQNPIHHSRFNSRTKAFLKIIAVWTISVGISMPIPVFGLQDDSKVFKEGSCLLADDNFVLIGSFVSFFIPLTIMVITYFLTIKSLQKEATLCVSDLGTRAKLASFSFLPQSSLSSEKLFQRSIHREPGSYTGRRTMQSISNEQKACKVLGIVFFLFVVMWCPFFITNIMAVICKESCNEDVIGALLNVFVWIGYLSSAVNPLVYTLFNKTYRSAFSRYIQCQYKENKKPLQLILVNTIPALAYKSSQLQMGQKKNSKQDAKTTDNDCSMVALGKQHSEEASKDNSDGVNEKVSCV
5-hydroxytryptamine receptor 4, sequence (O70528 whole entry): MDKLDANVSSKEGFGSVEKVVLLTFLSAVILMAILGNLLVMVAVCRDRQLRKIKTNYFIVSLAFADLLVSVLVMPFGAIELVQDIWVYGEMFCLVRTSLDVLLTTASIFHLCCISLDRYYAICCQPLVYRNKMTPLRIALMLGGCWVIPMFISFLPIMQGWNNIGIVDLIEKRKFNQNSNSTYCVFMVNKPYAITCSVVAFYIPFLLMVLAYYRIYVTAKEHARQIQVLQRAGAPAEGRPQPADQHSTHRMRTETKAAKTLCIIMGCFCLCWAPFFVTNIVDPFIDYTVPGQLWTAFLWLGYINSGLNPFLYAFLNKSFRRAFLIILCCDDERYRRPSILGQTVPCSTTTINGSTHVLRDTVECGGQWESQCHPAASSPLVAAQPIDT

Compound | EC50 [1] [nM] | IA [2] [%] | IC50 [3] [nM] | further results
Cc1[nH]c2ccc(Cl)cc2c1CCN(C)C | 16 | 53 | 40 | –
Cc1[nH]c2ccc(Cl)cc2c1C1=CCN(C)CC1 | 2.9 | 152 | 10 | –
CCc1[nH]c2ccc(Cl)cc2c1C1=CCN(CC)CC1 | – | – | 70 | –
COc1ccc2[nH]cc(C3=CCNCC3)c2c1 [RU-24969] | 200 | 55 | 79 | –
C1=C(c2c(-c3ccccc3)[nH]c3ccccc23)CCNC1 | – | – | 2 | –
CCc1[nH]c2ccc(Cl)cc2c1C1=CCNCC1 | – | – | 30 | –
CCc1[nH]c2ccc(OC)cc2c1C1CCNCC1 | – | – | – | IC50 [4]: 300 nM
CC(C)c1[nH]c2ccc(Cl)cc2c1C1=CCNCC1 | – | – | 100 | –
Cc1[nH]c2ccc(Cl)cc2c1C1=CCN(Cc2ccccc2)CC1 | – | – | 600 | –
CCCCN1CC=C(c2c(C)[nH]c3ccc(Cl)cc23)CC1 | – | – | 50 | –
CCN1CC=C(c2c(C)[nH]c3ccc(Cl)cc23)CC1 | – | – | 30 | –
CCCN1CC=C(c2c(C)[nH]c3ccc(Cl)cc23)CC1 | – | – | 60 | –
Cc1[nH]c2ccc(Cl)cc2c1C1=CCNCC1 | 1 | 92 | – | IC50 [5]: 3000 nM; IC50 [6]: 180 nM; IC50 [7]: 34 nM; IC50 [8]: 450 nM; IC50 [9]: 620 nM; IC50 [10]: 660 nM; IC50 [11]: 240 nM
COc1ccc2[nH]c(C)c(C3=CCNCC3)c2c1 | 5.8 | 100 | 80 | IC50 [12]: 80 nM; IC50 [5]: 9800 nM; IC50 [6]: 310 nM; IC50 [7]: > 1000 nM; IC50 [8]: > 1000 nM; IC50 [9]: 9800 nM; IC50 [10]: 430 nM; IC50 [11]: > 1000 nM
CCCc1[nH]c2ccc(Cl)cc2c1C1=CCNCC1 | – | – | 40 | –
CCc1[nH]c2ccc(OC)cc2c1C1=CCNCC1 | 7.9 | 100 | – | IC50 [4]: 90 nM
Cc1[nH]c2ccc(Cl)cc2c1C1=CC2CCC(C1)N2C (stereo not given) | 10000 | 75 | 40 | –
CCc1[nH]c2ccc(OC)cc2c1CCN(C)C | 710 | 113 | – | IC50 [12]: 85 nM; IC50 [13]: 85 nM; IC50 [5]: 1500 nM; IC50 [6]: > 1000 nM; IC50 [7]: > 1000 nM; IC50 [9]: 44 nM; IC50 [10]: > 1000 nM; IC50 [11]: 620 nM
